Assay results reported in PubChem BioAssay (NCI).
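All cell lines were grown in 96-well plates and treated with compound for 48 hours. GI50 is the concentration that inhibits growth by half. The concentration for full growth arrest is given as TGI.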

Key:
Assay in all cases: inhibition of tumour cell growth, NCI panel, 48 h
DU-145 prostate = tested on: DU-145 prostate
IGROV1 ovarian = tested on: IGROV1 ovarian
KM12 colon = tested on: KM12 colon
MALME-3M melanoma = tested on: MALME-3M melanoma
MDA-MB-231 breast = tested on: MDA-MB-231 breast
MOLT-4 leukemia = tested on: MOLT-4 leukemia
OVCAR-4 ovarian = tested on: OVCAR-4 ovarian
PC-3 prostate = tested on: PC-3 prostate
RXF 393 renal = tested on: RXF 393 renal
SK-MEL-2 melanoma = tested on: SK-MEL-2 melanoma

SMILES	GI50 (DU-145 prostate) [µM]	TGI (DU-145 prostate) [µM]	GI50 (IGROV1 ovarian) [µM]	TGI (IGROV1 ovarian) [µM]	GI50 (KM12 colon) [µM]	TGI (KM12 colon) [µM]	GI50 (MALME-3M melanoma) [µM]	TGI (MALME-3M melanoma) [µM]	GI50 (MDA-MB-231 breast) [µM]	TGI (MDA-MB-231 breast) [µM]	GI50 (MOLT-4 leukemia) [µM]	TGI (MOLT-4 leukemia) [µM]	GI50 (OVCAR-4 ovarian) [µM]	TGI (OVCAR-4 ovarian) [µM]	GI50 (PC-3 prostate) [µM]	TGI (PC-3 prostate) [µM]	GI50 (RXF 393 renal) [µM]	TGI (RXF 393 renal) [µM]	GI50 (SK-MEL-2 melanoma) [µM]	TGI (SK-MEL-2 melanoma) [µM]
Cc1ccc(NC(=O)Nc2ccc(-c3cccnc3)cc2N2CCC(CO)CC2)cc1	3.78	> 100	8.44	> 100	1.25	> 100	3.07	> 100	2.42	> 100	3.02	> 100	3.53	> 100	5.6	> 100	2.18	4.69	2.24	8.38
Cc1cc(-c2nc(C(=O)Nc3cc4oc(N5CCOCC5)nc4nc3N3CC[C@@H](O)C3)co2)ccn1	46.9	> 100	12.7	72.7	3.46	> 100	29.1	> 100	45.6	> 100	38.3	> 100	32.1	> 100	26.9	> 100	17.9	> 100	23	99.8
C=CC(=O)Nc1cc(Nc2ncc(C(=O)OC(C)C)c(-c3cn(C)c4ccccc34)n2)c(OC)cc1N(C)CCN(C)C	1.19	17.6	0.399	3.12	5.85	13.9	1.69	3.24	2.66	8.26	2.9	11.4	4.97	21.3	3.19	9.54	1.86	6.62	4.3	11
CCC(=O)[C@H](C)[C@@H](OC(=O)[C@H](C)CC)[C@H](C)[C@H]1OC(CC)=C(C)C(=O)[C@@H]1C	23.4	68.4	17.1	46.7	19.5	52.5	19.9	42.4	13.3	30.9	19.1	53.6	29	> 100	16.8	> 100	21.5	46.4	24.6	50.2
OCCN(CCO)c1ncnc2c1ncn2Cc1ccc(CCl)cc1	4.42	16.1	19.7	40.3	14.3	29.2	12.8	27.3	18	35.5	8.54	52.4	18.8	35.4	14	33.7	12	37.1	16.5	41.1
Cc1ccc(CN2CCC(C(=O)Nc3ccc(-c4cc5ccccc5[nH]4)cc3)CC2)o1	> 100	> 100	> 100	> 100	83.9	> 100	> 100	> 100	> 100	> 100	> 100	> 100	70.1	> 100	> 100	> 100	> 100	> 100	> 100	> 100
COc1cccc(C2c3cc4c(cc3OC(C)(N3CCCC3)C2C)OCO4)c1O (stereo not given)		15.3		> 70		27.4		42.3		18.4		> 54.6		> 100		> 43.5		> 40.6		> 23.5
Nc1c(C(=O)c2cccc(CCS(N)(=O)=O)c2)cnn1-c1ccc(F)cc1	> 25	> 25	> 25	> 25	> 25	> 25	> 25	> 25	> 25	> 25	> 25	> 25	> 25	> 25	> 25	> 25	> 25	> 25	> 25	> 25
NC(N)=NS(=O)(=O)c1ccc(Nc2c3ccccc3nc3c(C(=O)NCCO)cccc23)cc1	15.3		17.8		15.4		16.7		24.6		4.78		25.3		22.2		19.6		26.6	
Cc1nc2sccn2c1-c1csc(Nc2ccccc2Cl)n1	7.87	68.8	5.45	50	2.61	24.5	3.55	22.1	3.33	27	3.28	17	2.35	83.5	4.09	37.5	1.9	7.09	3.83	17.9
